Reference: ChEMBL document CHEMBL4152288, “Medicinal Chemistry and Use of Myosin II Inhibitor ( S)-Blebbistatin and Its Derivatives” (J Med Chem, 2018)
≈ marks a conversion by molar mass, not a printed value.

Assays:
U-87 MG [1] = test: Cytotoxicity against human U87 cells assessed as cell death at 200 uM after 24 hrs relative to control; type: functional, U-87MG ATCC
LNCaP [2] = test: Cytotoxicity against human LNCAP cells assessed as cell death at 200 uM after 24 hrs relative to control; type: functional
U-87 MG [3] = test: Cytotoxicity against human U87 cells assessed as cell death at 200 uM after 3 hrs relative to control; type: functional, U-87MG ATCC
HeLa = test: Cytotoxicity against human HeLa cells assessed as cell death at 20 uM measured after 3 days by trypan blue based light microscopy relative to control
[4] = Cytotoxicity against human Fem-X cells assessed as cell death at 200 uM after 24 hrs relative to control; type: functional
[5] = Steady state aqueous solubility of the compound in 10 % DMSO buffer up to 240 mins; type: physicochemical; conditions: 4 h
Capan-2 = test: Cytotoxicity against human Capan2 cells assessed as cell death at 400 uM after 24 hrs; type: functional
MIA PaCa-2 = test: Cytotoxicity against human MIAPaCa2 cells assessed as cell death at 400 uM after 24 hrs; type: functional
BXPC-3 = test: Cytotoxicity against human BxPC3 cells assessed as cell death at 400 uM after 24 hrs; type: functional
[6] = Cytotoxicity against F11-hTERT cells (unknown origin) assessed as cell death at 200 uM after 24 hrs relative to control; type: functional
[7] = Toxicity in zebrafish embryo assessed as mortality at 10 uM in presence 0.4 uJ/cm2 of irradiation measured after 36 hrs relative to control; type: organism-based, Danio rerio; conditions: zebrafish embryos, read-out: Activity
[8] = Steady state aqueous solubility of the compound in 0.1 % DMSO buffer at 25 degC; type: physicochemical; conditions: aqueous buffer with 0.1% DMSO
DU-145 [9] = test: Cytotoxicity against human DU145 cells assessed as cell death at 200 uM after 3 hrs relative to control; type: functional
[10] = Cytotoxicity against human Fem-X cells assessed as cell death at 200 uM after 3 hrs relative to control; type: functional
DU-145 [11] = test: Cytotoxicity against human DU145 cells assessed as cell death at 200 uM after 24 hrs relative to control; type: functional
LNCaP [12] = test: Cytotoxicity against human LNCAP cells assessed as cell death at 200 uM after 3 hrs relative to control; type: functional
[13] = Toxicity in Dictyostelium discoideum assessed as mortality at 20 uM after 3 days relative to control; type: organism-based; conditions: Dictyostelium discoideum cells, read-out: Activity
PANC-1 = test: Cytotoxicity against human PANC1 cells assessed as cell death at 400 uM after 24 hrs; type: functional
[14] = Cytotoxicity against F11-hTERT cells (unknown origin) assessed as cell death at 200 uM after 3 hrs relative to control; type: functional
Myosin-2 heavy chain [15] = molecular target: T1, Myosin-2 heavy chain (Dictyostelium discoideum, UniProt P08799); test: Inhibition of Dictyostelium discoideum myosin 2 ATPase activity by NADH-coupled assay
Oryctolagus cuniculus [16] = organism: Oryctolagus cuniculus; test: Inhibition of rabbit skeletal myosin 2 ATPase activity at 50 uM relative to control
Oryctolagus cuniculus [17] = organism: Oryctolagus cuniculus; test: Inhibition of rabbit skeletal myosin 2 ATPase activity at 5 uM relative to control
[18] = molecular target: Myosin-2 heavy chain (Dictyostelium discoideum) (UniProt P08799); test: Inhibition of Dictyostelium discoideum myosin 2 ATPase activity at 50 uM relative to control
Myosin-4 = Myosin-4 (Oryctolagus cuniculus, UniProt Q28641); test: Inhibition of rabbit skeletal muscle myosin 2
[19] = Inhibition of human myosin 2a ATPase activity
Unconventional myosin-Ib = Unconventional myosin-Ib (Rattus norvegicus, UniProt Q05096); test: Inhibition of rat myosin 1b by NADH-coupled spectrophotometric analysis
Myosin-10 = Myosin-10 (Homo sapiens, UniProt P35580); test: Inhibition of human non-muscle myosin 2b
[20] = Inhibition of Meleagris gallopavo smooth muscle myosin 2 ATPase activity
Myosin-7 = Myosin-7 (Sus scrofa, UniProt P79293); test: Inhibition of pig beta cardiac myosin 2 by NADH-coupled spectrophotometric analysis
Myosin IC heavy chain = Myosin IC heavy chain (Acanthamoeba castellanii, UniProt P10569); test: Inhibition of dephosphorylated Acanthamoeba […] myosin 1c by NADH-coupled spectrophotometric analysis
[21] = Inhibition of chicken smooth muscle myosin 2 ATPase activity preincubated for 60 mins followed by ATP addition measured after 10 mins by malachite green based assay
[22] = molecular target: Myosin-2 heavy chain, non muscle (Acanthamoeba castellanii, UniProt P05659); test: Inhibition of dephosphorylated Acanthamoeba non muscle myosin 2 by NADH-coupled spectrophotometric analysis
Unconventional myosin-XV = Unconventional myosin-XV (Homo sapiens, UniProt Q9UKN7); test: Inhibition of human myosin 15 by NADH-coupled spectrophotometric analysis
[23] = Inhibition of Bos taurus smooth muscle myosin 2 ATPase activity
Unconventional myosin-Va = Unconventional myosin-Va (Mus musculus, UniProt Q99104); test: Inhibition of mouse myosin 5a by NADH-coupled spectrophotometric analysis
[24] = molecular target: Myosin heavy chain, non-muscle (Drosophila melanogaster, UniProt Q99323); test: Inhibition of fruit fly non-muscle myosin 2
[25] = molecular target: Nonmuscle myosin heavy chain (Gallus gallus, UniProt Q789A4); test: Inhibition of chicken non-muscle myosin 2b by NADH-coupled spectrophotometric analysis
Unconventional myosin-X = Unconventional myosin-X (Bos taurus, UniProt P79114); test: Inhibition of bovine myosin x by NADH-coupled spectrophotometric analysis
[26] = Inhibition of bay scallop striated muscle myosin heavy chain
Myosin-14 = Myosin-14 (Mus musculus, UniProt Q6URW6); test: Inhibition of mouse non-muscle myosin 2c
Myosin-9 = Myosin-9 (Homo sapiens, UniProt P35579); test: Inhibition of human non-muscle myosin 2a
Myosin-2 heavy chain [27] = molecular target: T1, Myosin-2 heavy chain; test: Inhibition of Dictyostelium discoideum myosin 2 ATPase activity

Sequence of Myosin-2 heavy chain (Dictyostelium discoideum) (P08799 whole entry): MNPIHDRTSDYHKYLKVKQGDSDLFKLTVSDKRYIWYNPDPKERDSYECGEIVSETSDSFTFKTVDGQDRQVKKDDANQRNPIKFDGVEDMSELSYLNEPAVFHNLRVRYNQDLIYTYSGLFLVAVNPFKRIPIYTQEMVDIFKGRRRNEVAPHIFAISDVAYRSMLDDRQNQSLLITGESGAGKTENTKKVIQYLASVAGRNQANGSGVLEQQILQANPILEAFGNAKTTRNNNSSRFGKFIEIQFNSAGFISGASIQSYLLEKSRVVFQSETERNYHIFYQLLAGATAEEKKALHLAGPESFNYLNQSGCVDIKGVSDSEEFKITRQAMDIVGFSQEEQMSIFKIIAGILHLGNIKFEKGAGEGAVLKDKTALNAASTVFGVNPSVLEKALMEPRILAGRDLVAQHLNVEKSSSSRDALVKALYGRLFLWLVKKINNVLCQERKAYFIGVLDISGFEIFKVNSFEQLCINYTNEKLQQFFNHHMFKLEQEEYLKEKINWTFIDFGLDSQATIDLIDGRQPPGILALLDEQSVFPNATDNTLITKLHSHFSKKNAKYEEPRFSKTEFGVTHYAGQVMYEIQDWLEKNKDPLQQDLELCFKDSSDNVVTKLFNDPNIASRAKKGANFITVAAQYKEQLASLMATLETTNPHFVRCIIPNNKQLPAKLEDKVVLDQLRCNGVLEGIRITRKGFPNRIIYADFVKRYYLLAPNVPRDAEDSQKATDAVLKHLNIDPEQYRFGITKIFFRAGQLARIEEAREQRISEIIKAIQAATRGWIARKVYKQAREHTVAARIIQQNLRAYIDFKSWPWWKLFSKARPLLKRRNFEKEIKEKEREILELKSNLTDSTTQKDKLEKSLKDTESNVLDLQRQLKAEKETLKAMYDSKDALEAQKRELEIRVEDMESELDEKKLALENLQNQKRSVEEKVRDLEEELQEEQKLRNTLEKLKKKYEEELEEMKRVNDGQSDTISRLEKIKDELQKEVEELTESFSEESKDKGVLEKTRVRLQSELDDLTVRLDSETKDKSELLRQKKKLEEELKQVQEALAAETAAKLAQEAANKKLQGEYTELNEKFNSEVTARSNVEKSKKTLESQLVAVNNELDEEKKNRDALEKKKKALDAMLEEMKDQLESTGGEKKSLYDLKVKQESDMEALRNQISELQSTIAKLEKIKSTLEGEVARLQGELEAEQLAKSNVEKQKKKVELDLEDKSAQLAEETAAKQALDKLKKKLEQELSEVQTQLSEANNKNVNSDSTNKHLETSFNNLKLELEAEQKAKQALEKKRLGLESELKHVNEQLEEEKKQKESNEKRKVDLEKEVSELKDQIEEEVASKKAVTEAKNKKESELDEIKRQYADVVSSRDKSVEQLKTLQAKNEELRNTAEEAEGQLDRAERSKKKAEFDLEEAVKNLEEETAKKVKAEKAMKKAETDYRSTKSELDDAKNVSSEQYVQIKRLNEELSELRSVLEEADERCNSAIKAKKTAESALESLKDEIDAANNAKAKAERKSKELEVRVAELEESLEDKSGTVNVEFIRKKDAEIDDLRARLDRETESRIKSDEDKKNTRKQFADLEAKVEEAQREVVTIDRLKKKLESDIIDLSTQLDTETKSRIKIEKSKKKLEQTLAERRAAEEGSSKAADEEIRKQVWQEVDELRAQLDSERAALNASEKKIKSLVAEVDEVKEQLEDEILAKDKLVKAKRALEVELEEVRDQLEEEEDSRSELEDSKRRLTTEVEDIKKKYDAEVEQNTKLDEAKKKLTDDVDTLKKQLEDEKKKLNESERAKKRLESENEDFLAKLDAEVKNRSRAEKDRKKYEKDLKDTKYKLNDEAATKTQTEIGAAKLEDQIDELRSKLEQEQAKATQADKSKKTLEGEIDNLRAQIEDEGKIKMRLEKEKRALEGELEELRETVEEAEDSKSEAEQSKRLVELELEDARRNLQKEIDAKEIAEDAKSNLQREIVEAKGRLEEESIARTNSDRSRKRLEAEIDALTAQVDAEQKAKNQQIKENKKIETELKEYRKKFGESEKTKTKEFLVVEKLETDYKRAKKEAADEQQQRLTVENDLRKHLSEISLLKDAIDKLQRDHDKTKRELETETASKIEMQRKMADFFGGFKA
T1 sequence (P08799 whole entry): as above
Sequence of Myosin-4 (Q28641 whole entry): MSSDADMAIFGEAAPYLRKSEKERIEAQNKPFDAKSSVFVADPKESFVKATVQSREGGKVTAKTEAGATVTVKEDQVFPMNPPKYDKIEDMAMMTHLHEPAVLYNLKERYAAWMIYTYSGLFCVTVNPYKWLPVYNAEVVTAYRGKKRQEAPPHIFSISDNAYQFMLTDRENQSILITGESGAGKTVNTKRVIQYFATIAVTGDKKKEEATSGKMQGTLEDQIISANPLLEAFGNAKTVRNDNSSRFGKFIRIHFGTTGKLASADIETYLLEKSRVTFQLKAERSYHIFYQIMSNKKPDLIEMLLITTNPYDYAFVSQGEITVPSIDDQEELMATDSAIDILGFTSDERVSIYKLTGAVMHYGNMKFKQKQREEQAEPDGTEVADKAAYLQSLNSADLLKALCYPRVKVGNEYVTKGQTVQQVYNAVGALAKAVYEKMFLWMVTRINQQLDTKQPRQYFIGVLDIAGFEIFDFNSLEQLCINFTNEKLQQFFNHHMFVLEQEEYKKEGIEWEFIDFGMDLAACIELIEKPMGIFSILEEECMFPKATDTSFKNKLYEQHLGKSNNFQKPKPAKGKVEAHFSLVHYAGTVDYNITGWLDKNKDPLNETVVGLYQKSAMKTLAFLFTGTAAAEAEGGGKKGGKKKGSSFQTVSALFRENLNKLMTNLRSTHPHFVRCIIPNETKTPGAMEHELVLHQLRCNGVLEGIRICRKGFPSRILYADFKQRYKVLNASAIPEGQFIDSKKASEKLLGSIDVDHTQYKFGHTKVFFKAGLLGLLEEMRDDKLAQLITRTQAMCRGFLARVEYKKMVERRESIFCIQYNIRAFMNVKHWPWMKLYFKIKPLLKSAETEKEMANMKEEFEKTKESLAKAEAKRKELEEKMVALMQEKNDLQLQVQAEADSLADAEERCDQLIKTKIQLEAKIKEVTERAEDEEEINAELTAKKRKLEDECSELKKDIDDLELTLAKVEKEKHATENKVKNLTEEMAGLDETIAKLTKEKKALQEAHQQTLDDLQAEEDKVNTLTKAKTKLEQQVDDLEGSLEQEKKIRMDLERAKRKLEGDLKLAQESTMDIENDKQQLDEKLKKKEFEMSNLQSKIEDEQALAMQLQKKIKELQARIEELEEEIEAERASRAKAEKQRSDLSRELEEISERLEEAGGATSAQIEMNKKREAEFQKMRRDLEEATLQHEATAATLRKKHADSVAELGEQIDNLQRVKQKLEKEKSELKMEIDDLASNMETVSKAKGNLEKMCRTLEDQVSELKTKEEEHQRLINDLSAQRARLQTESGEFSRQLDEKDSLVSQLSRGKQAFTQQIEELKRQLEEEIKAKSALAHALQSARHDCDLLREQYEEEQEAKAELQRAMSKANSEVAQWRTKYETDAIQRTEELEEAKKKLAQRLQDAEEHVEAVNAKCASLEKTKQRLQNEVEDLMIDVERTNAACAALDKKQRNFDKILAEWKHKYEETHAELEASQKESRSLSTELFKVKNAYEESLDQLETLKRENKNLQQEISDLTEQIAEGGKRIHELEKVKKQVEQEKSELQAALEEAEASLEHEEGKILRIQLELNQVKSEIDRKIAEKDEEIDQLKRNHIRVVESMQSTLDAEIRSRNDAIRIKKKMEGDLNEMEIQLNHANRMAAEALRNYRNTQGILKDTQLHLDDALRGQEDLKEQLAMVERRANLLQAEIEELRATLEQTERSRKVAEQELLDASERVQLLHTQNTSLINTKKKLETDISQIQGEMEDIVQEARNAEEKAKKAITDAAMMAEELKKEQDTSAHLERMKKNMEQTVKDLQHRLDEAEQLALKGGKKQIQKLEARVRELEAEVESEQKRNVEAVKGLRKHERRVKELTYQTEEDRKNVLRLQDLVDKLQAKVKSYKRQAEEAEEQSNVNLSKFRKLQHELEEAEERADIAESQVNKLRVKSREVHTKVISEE

Cc1ccc2c(c1)C(=O)[C@]1(O)CCN(c3ccccc3)C1=N2
Activity (U-87 MG [1]): 65%
Activity (LNCaP [2]): 96%
Activity (U-87 MG [3]): 40%
Activity (HeLa): 90%
Activity [4]: 100%
solubility [5]: 80 µM (≈ 23.4 µg/mL)
Activity (Capan-2): 45%
Activity (MIA PaCa-2): 20%
Activity (BXPC-3): 25%
Activity [6]: 85%
mortality at 36 h, 10 µM [7]: 100%
solubility [8]: 7 to 11 µM (≈ 2.05 to 3.22 µg/mL)
Activity (DU-145 [9]): 30%
Activity [10]: 30%
Activity (DU-145 [11]): 90%
Activity (LNCaP [12]): 10%
mortality at 72 h, 20 µM [13]: 0%
Activity (PANC-1): 0%
Activity [14]: 30%

Cc1ccc2c(c1)C(=O)[C@]1(O)CCN(c3ccc(N=[N+]=[N-])cc3)C1=N2
IC50 (Myosin-2 heavy chain [15]): 5.2 µM

Cc1ccc2c(c1)N=C1N(c3ccccc3)CC[C@@]1(O)C2=O
inhibition (Oryctolagus cuniculus [16]): 94%
inhibition (Oryctolagus cuniculus [17]): 86%
inhibition [18]: 90%

Cc1ccc2c(c1)C(=O)[C@]1(O)CCN(c3ccc([N+](=O)[O-])cc3)C1=N2
IC50 (Myosin-4): 0.4 µM
IC50 (Myosin-2 heavy chain [15]): 2.3 µM

Cc1cccc2c1C(=O)[C@]1(O)CCN(c3ccccc3)C1=N2
inhibition (Oryctolagus cuniculus [16]): 95%
inhibition (Oryctolagus cuniculus [17]): 86%
inhibition [18]: 88%

O=C1c2ccc([N+](=O)[O-])cc2N=C2N(c3ccccc3)CC[C@@]12O
IC50 [19]: 28 µM

O=C1c2ccccc2N=C2N(c3ccccc3)CC[C@@]12O
inhibition (Oryctolagus cuniculus [16]): 95%
inhibition (Oryctolagus cuniculus [17]): 84%
inhibition [18]: 88%

Cc1cccc2c1N=C1N(c3ccccc3)CC[C@@]1(O)C2=O
inhibition (Oryctolagus cuniculus [16]): 72%
inhibition (Oryctolagus cuniculus [17]): 31%
inhibition [18]: 35%

Cc1ccc2c(c1)C(=O)C1(O)CCN(c3ccccc3)C1=N2 (racemic)
IC50 (Unconventional myosin-Ib): > 150 µM
IC50 (Myosin-4): 0.22 to 4.32 µM
IC50 (Myosin-10): 4.6 µM
IC50 [20]: 80 µM
IC50 (Myosin-7): 1.2 µM
IC50 (Myosin IC heavy chain): > 150 µM
IC50 [21]: 5.5 to 23.5 µM
IC50 [22]: 83 µM
IC50 (Unconventional myosin-XV): > 100 µM
IC50 [23]: 4.3 to 11 µM
IC50 (Unconventional myosin-Va): > 150 µM
IC50 [24]: > 200 µM
IC50 [25]: 1.8 µM
IC50 (Unconventional myosin-X): > 150 µM
IC50 [26]: 2.3 µM
IC50 (Myosin-14): 3.2 µM
IC50 (Myosin-9): 4 to 14 µM

Cc1ccc2c(c1)C(=O)[C@]1(O)CCN(c3ccc(Cl)cc3)C1=N2
IC50 (Myosin-2 heavy chain [27]): 1.9 µM
